{"source": "patent US7288554B2", "about": "“Ortho-substituted aryl amides for controlling invertebrate pests” (E.I. du Pont de Nemours and Company, priority 2001, dated 2007)", "data": [{"smiles": "Cc1cccc(S(=O)(=O)NC(C)C)c1NC(=O)c1cc(C(F)(F)F)nn1-c1ncccc1Cl", "note": "[Compound B3, 1-(3-Chloro-2-pyridinyl)-N-[2-methyl-6-[[(1-methylethyl)amino]sulfonyl]phenyl]-3-(trifluoromethyl)-1H-pyrazole-5-carboxamide]", "values": [{"measurement": "melting point", "value": "69 to 73", "unit": "°C"}]}]}
